We go through five compounds from ChEMBL document CHEMBL1201862, “PubChem BioAssay data set” (2004).

Among the test systems are CAKI-1; SK-MEL-28; A498; 786-0; NCI-H226; A549; SN12C; OVCAR-4; UACC-257; NCI-H522; HCT-15; DU-145; Malme-3M; HT-29; SF-268; SNB-19; MDA-MB-435; NCI/ADR-RES; M19-MEL.
Holding throughout (assay): NCI anticancer screen, dose series, 48 h

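Protocol summary: plate cells (96-well), add compound at 5 concentrations, incubate 48 h, interpolate endpoints linearly. GI50 marks 50% less growth.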 Active and inactive are the calls of the source. Rule as the data show it: active = GI50 up to about 1.1 µM and inactive = higher.

With `COC(=O)[C@@H](NS(=O)(=O)CC12CCC(CC1)C2(C)C)C(C)(C)C`, the GI50 in the assay on CAKI-1, with SK-MEL-28, in the assay on A498, in the assay on 786-0, in the assay with NCI-H226 and in the assay with A549 was > 100 µM (inactive) in each case. Besides, the GI50 with SN12C is > 100 µM (inactive); in the assay with OVCAR-4, > 100 µM (inactive); with UACC-257, > 100 µM (inactive); in the assay with NCI-H522, > 100 µM (inactive); in the assay with HCT-15, > 100 µM; with DU-145, > 100 µM (inactive). Besides, the GI50 with Malme-3M, with HT-29, with SF-268, in the assay on SNB-19, in the assay on MDA-MB-435 and in the assay on NCI/ADR-RES was > 100 µM (inactive) in each case.
On to `COc1c(Br)cc(Br)c(OC)c1-c1[nH]c(Br)c(Br)c1Br`, for which the GI50 in the assay on CAKI-1 is 2.52 µM (inactive); in the assay with SK-MEL-28 it was 6.65 µM (inactive); in the assay on A498, 12.1 µM (inactive); with 786-0, 10.7 µM (inactive); with NCI-H226, 5.7 µM (inactive); in the assay on A549, 5.04 µM (inactive). The GI50 is 5.9 µM (inactive) in the assay with SN12C; 4.28 µM (inactive) with OVCAR-4; 4.81 µM (inactive) in the assay on UACC-257; 2.18 µM (inactive) in the assay with NCI-H522; 4.28 µM with HCT-15; 3.74 µM (inactive) with Malme-3M. In addition, the GI50 in the assay with HT-29 was 4.17 µM (inactive); with SF-268, 3.78 µM (inactive); in the assay on SNB-19 it was 13.1 µM (inactive); in the assay on M19-MEL it was 10.2 µM (inactive).
For the compound `CC1=C(C)C2(C#N)C(=O)N3C(=NC(c4ccco4)NC3c3ccco3)C2(C#N)C(c2ccco2)N1` (stereo unspecified), the GI50 with CAKI-1, in the assay with SK-MEL-28, in the assay with A498, with 786-0, in the assay with NCI-H226 and with A549 was > 100 µM (inactive) in each case. Also, the GI50 with SN12C is > 100 µM (inactive); in the assay on OVCAR-4 it was > 100 µM (inactive); with UACC-257 it was > 100 µM (inactive); in the assay on NCI-H522 it was > 100 µM (inactive); in the assay with HCT-15 it was > 100 µM; in the assay on DU-145, > 100 µM (inactive). Moreover, the GI50 with Malme-3M, in the assay with HT-29, in the assay with SF-268, in the assay on SNB-19, in the assay on MDA-MB-435 and with NCI/ADR-RES was > 100 µM (inactive) in each case.
Regarding `CC(=O)OCC(=O)[C@@]1(O)CC[C@H]2[C@@H]3C[C@H](C)C4=CC(=O)C=C[C@]4(C)[C@@]3(F)[C@@H](O)C[C@@]21C`, the GI50 in the assay on CAKI-1 was > 100 µM (inactive); with SK-MEL-28, > 100 µM (inactive); in the assay on 786-0 it was > 100 µM (inactive); in the assay on NCI-H226, 32.5 µM (inactive); in the assay with A549, > 100 µM (inactive); in the assay on OVCAR-4 it was > 100 µM (inactive). In addition, the GI50 in the assay with UACC-257 was > 100 µM (inactive); in the assay on NCI-H522, > 100 µM (inactive); in the assay with HCT-15 it was > 100 µM; in the assay with Malme-3M, > 100 µM (inactive); with HT-29, > 100 µM (inactive); in the assay on SF-268, > 100 µM (inactive). The GI50 in the assay with SNB-19 and with M19-MEL was > 100 µM (inactive) in each case.
On to `COc1ccc(OC)c(N2CC(N)C2=O)c1` (stereo unspecified), for which the GI50 with SK-MEL-28, in the assay with A498, in the assay with 786-0, with NCI-H226, in the assay on A549 and with SN12C was > 100 µM (inactive) in each case. For the same compound, the GI50 was > 100 µM (inactive) with OVCAR-4; > 100 µM (inactive) in the assay with UACC-257; > 100 µM (inactive) in the assay on NCI-H522; > 100 µM with HCT-15; > 100 µM (inactive) with Malme-3M; > 100 µM (inactive) in the assay with HT-29. In addition, the GI50 in the assay on SF-268, with SNB-19 and in the assay on M19-MEL was > 100 µM (inactive) throughout.
